Results reported in patent US20060074109A1, “Use of inhibitors of 24-hydroxylase in the treatment of cancer” (Sapphire Therapeutics, Inc., priority 2004, published 2006).

Columns and labels:
[1] = test system: OVCAR-3 cells; experiment: Cell growth assay, crystal violet, 11 days; format: cell-based, human; details: for effect on growth inhibition: Experiment V
Method: (§1) The human ovarian adenocarcinoma cell line, OVCAR-3 (ATCC, Manassas, Va.) was maintained, as recommended by the supplier, in RPMI 1640 medium (Sigma Aldrich, St. Louis, Mo.) supplemented with 10% FBS, 10 μg/ml insulin, 0.25% glucose and antibiotics (100 IU/ml penicillin, 100 μg/ml streptomycin). Human ovarian adenocarcinoma cell lines UT-OC-1, UT-OC-2, UT-OC-3, UT-OC-4, UT-OC-5 (Grenman, S., Engblom, P., Rantanen, V., Klemi, P. and Isola, J., “Cytogenetic Characterization of Five New Ovarian Carcinoma Cell Lines,” Acta Obstet. Gynecol. Scand., 76:83 (1997)) and SK-OV-3 and a human keratinocyte cell line HaCaT were grown in DMEM (Sigma Aldrich) with 10% FBS and antibiotics (100 IU/ml penicillin, 100 μg/ml streptomycin), and monkey kidney COS cells were maintained in DMEM/F12 (Sigma Aldrich) with 5% FBS. All cell lines were kept at 37° C. in a humidified 95% air/5% CO2 incubator.
(§2) When OVCAR-3 cells were on the logarithmic growth phase (70% confluent) the growth assay was started. For cell growth assay, 2,000 cell/200 μl/well were plated on 96-well culture plates. […] Ethanol was used as a vehicle, and it was also included in the control. The medium containing ethanol vehicle and/or hormones were changed to a fresh one every third day. Cell growth samples were taken 0, 1, 3, 5, 7, 9 and 11 days after the treatment.
(§3) Relative cell numbers were quantified as described previously (Kueng W, Silber E, Eppenberger U. Quantification of cells cultured on 96-well plates. Anal. Biochem., 182:16-9 (1989)). Cells were fixed on the bottom of the wells by addition of 10 μl of 11% glutaraldehyde solution in 0.1% phosphate buffer to 100 μl of medium. The plate was shaken 500 cycles/min for 15 min, washed 3 times by submersion in de-ionised water and air-dried. Fixed cells were stained with 0.1% solution of crystal violet dissolved in de-ionised water. After 20 min incubation, excess dye was removed by carefully washing with de-ionised water. The plate was air-dried prior to a bound dye solubilisation in 100 μl of 10% acetic acid. Relative cell number was given as absorbance units by measuring the optical density (590 nm) from each well using Victor 1420 multilabel counter (Wallac, Turku, Finland). Six determinations were used to calculate the mean optical density ±SD in each concentration at each time point. The absorbance value of day 0 (an overnight culture of 2,000 cells/well) was set as 0 by subtracting it from each value obtained from adjacent time-point measurements (days 1-11), and based on these values growth curves were created. Experiments were repeated 3-5 times. Day 11 was used to compare the effect of hormone treatments and 24OHase inhibitor. Statistical analyses were done using Student's t-test.
The cell growth response was determined as described in Experiment I. Briefly, cells were treated with indicated hormone concentrations or combinations of hormone and 24OHase inhibitor (VID400) for 11 days. The growth medium and hormones were changed to a fresh one every third day. After the treatment period, cells were fixed, stained with crystal violet, and the optical density (590 nm) was determined. The cell growth is presented as a percentage of ethanol-treated cells. The values represent the mean of 3 separate experiments ±SD. (*p<0.05, **p<0.001, ***p<0.0001, Student's t-test).
(§4) Cell growth samples were obtained after 11 days treatment.

[2] = test system: UT-OC-5 cells; experiment: Cell growth assay, crystal violet, 11 days; format: cell-based, human; details: 200 nM VID 400 combined with hormones, especially 1,25(OH)2D3 or EB 1089, 11 days
Method: as §1, §2, §3, §4

[3] = test system: UT-OC-1 cells; experiment: Cell growth assay, crystal violet, 11 days; format: cell-based, human
Method: as §1, §2, §3, §4

[4] = test system: SK-OV-3 cells; experiment: Cell growth assay, crystal violet, 11 days; format: cell-based, human
Method: as §1, §2, §3, §4

[5] = test system: UT-OC-3 cells; experiment: Cell growth assay, crystal violet, 11 days; format: cell-based, human; details: 200 nM VID 400 combined with vitamin D or retinoid compounds
Method: as §1, §2, §3, §4

[6] = test system: UT-OC-4 cells; experiment: Cell growth assay, crystal violet, 11 days; format: cell-based, human
Method: as §1, §2, §3, §4

[7] = test system: UT-OC-2 cells; experiment: Cell growth assay, crystal violet, 11 days; format: cell-based, human; details: 200 nM VID 400 combined with vitamin D or retinoid compounds
Method: as §1, §2, §3, §4

[8] = test system: PC3 prostate cancer cells; experiment: Cell growth, methylene blue uptake (Experiment VI); format: cell-based; details: VID400+calcitriol
Method: (§5) Culture conditions were the same as for Experiment I. Cell growth was measured using uptake of methylene blue (0.5% in 50% ethanol), followed by air drying and release of the dye in 1% sodium N-lauroyl sarcosine in PBS.

[9] = test system: CWR22Rv-1 prostate cancer cells; experiment: Cell growth, methylene blue uptake (Experiment VI); format: cell-based; details: VID400+calcitriol
Method: as §5

[10] = test system: DU145 prostate cancer cells; experiment: Cell growth, methylene blue uptake (Experiment VI); format: cell-based; details: VID400+calcitriol
Method: as §5

[11] = test system: ovarian cancer cell lines; experiment: Cell growth assay, crystal violet, 11 days, all cell lines; format: cell-based, human; details: 200 nM VID 400 alone
Method: The human ovarian adenocarcinoma cell line, OVCAR-3 (ATCC, Manassas, Va.) was maintained, as recommended by the supplier, in RPMI 1640 medium (Sigma Aldrich, St. Louis, Mo.) supplemented with 10% FBS, 10 μg/ml insulin, 0.25% glucose and antibiotics (100 IU/ml penicillin, 100 μg/ml streptomycin). Human ovarian adenocarcinoma cell lines UT-OC-1, UT-OC-2, UT-OC-3, UT-OC-4, UT-OC-5 (Grenman, S., Engblom, P., Rantanen, V., Klemi, P. and Isola, J., “Cytogenetic Characterization of Five New Ovarian Carcinoma Cell Lines,” Acta Obstet. Gynecol. Scand., 76:83 (1997)) and SK-OV-3 and a human keratinocyte cell line HaCaT were grown in DMEM (Sigma Aldrich) with 10% FBS and antibiotics (100 IU/ml penicillin, 100 μg/ml streptomycin), and monkey kidney COS cells were maintained in DMEM/F12 (Sigma Aldrich) with 5% FBS. […]
Relative cell numbers were quantified as described previously (Kueng W, Silber E, Eppenberger U. Quantification of cells cultured on 96-well plates. Anal. Biochem., 182:16-9 (1989)). […] Relative cell number was given as absorbance units by measuring the optical density (590 nm) from each well using Victor 1420 multilabel counter (Wallac, Turku, Finland). […] The absorbance value of day 0 (an overnight culture of 2,000 cells/well) was set as 0 by subtracting it from each value obtained from adjacent time-point measurements (days 1-11), and based on these values growth curves were created. […]

[12] = target: T1, 24-hydroxylase (Homo sapiens, UniProt Q07973); details: Schuster et al., J. Cell. Biochem. 88:372-380 (2003); cited from earlier work
T1 sequence (Q07973 36-514): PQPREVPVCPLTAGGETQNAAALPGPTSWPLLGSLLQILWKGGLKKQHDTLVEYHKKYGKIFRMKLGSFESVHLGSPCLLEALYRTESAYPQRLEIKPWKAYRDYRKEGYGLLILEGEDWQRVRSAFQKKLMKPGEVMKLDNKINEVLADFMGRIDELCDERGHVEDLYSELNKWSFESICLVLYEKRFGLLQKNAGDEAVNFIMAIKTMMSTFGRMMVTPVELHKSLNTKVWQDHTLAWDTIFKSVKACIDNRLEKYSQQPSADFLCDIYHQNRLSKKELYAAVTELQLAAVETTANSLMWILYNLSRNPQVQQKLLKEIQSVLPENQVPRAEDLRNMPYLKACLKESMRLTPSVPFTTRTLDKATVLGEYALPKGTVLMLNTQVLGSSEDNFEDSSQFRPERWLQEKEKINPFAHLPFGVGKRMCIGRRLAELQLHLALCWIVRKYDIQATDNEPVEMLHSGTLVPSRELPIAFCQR

C=C1CC[C@H](O)C/C1=C/C=C1\CCC[C@]2(C)[C@@H]([C@H](C)CCCC(C)(C)O)CC[C@@H]12 [25(OH)D3, monohydroxyvitamin D3]
stimulated growth compared to the control ([1]; 10 nM, 11 days): 32% | stimulated growth compared to the control ([1]; 50 nM, 11 days): 41% | stimulated growth compared to the control ([1]; 100 nM alone, 11 days, Experiment IV, not statistically significant): 18% | stimulated growth compared to the control ([1]; 100 nM, 11 days, Experiment I): 39% | stimulated growth compared to the control ([1]; 200 nM, 11 days): 35% | stimulated growth compared to the control ([1]; 500 nM, 11 days): 11%

O=C(NC[C@@H](c1ccccc1)n1ccnc1)c1ccc(-c2ccc(Cl)cc2)cc1 [VID400, 2-(R)-4′-Chlorobiphenyl-4-carboxylic acid (2-imidazol-1-yl-2-phenyl-ethyl)-amide]
growth inhibition compared to the control ([1]; 200 nM VID400 alone, 11 days, Experiment IV): 8% | growth inhibition compared to the control ([1]; 200 nM VID400 combined with 1 nM 1,25(OH)2D3, 11 days): 27% | growth inhibition compared to the control ([1]; 200 nM VID400 combined with 10 nM 1,25(OH)2D3, 11 days): 77% | effect on growth inhibition ([1]; 200 nM VID 400 combined with 10 nM 1,25(OH)2D3, 11 days): clearly enhanced the growth inhibition | growth inhibition compared to the control ([1]; 200 nM VID400 combined with 100 nM 25(OH)D3, 11 days): 14% | effect on growth inhibition ([1]; 200 nM VID 400 combined with EB 1089, 11 days): had no additional effect on cell growth inhibition | effect on growth inhibition ([1]; 200 nM VID 400 combined with retinoids, 11 days): slightly augmented the growth inhibition | effect on cell growth [2]: had an inhibitory effect on growth | inhibition of cell growth ([3]; 200 nM VID 400 combined with 100 nM EB 1089, 11 days): did so | effect on growth inhibition ([3]; 200 nM VID 400 combined with 10 μM 9-CRA, 11 days): augmented the growth inhibition | augmentation of growth inhibition ([3]; 200 nM VID 400 combined with 10 μM ATRA, 11 days): not seen | effect on growth inhibition ([4]; 200 nM VID 400 combined with 9-CRA): potentiated this effect | effect on cell growth ([4]; 200 nM VID 400 combined with vitamin D compounds): slightly inhibitory effect on growth | effect on cell growth [5]: growth inhibition was seen | effect on cell growth ([6]; 200 nM VID 400 combined with 100 nM 1,25(OH)2D3 or EB 1089, 11 days): cell growth was inhibited | effect on growth inhibition ([6]; 200 nM VID 400 combined with 10 μM ATRA or 9-CRA, 11 days): potentiated this effect | effect on cell growth [7]: growth inhibition was seen | effect on cell growth [8]: synergistic inhibition of growth | effect on cell growth [9]: synergistic inhibition of growth | effect on cell growth [10]: synergistic inhibition of growth | effect on cell growth [11]: varied from slight stimulation to growth inhibition | inhibition of 24-hydroxylase [12]: potent inhibitors of 24-hydroxylase
